Experimental data taken from PMC6562366 (Molecular Therapy Oncolytics, 2019).
pIC50: −log10 of the molar value.

Target: PIM-2 (Homo sapiens, UniProt Q9P1W9)
Experiment: radiometric filter-binding kinase assay, recombinant kinase, dose-response
Type: biochemical

PIM-2, sequence (Q9P1W9 whole entry): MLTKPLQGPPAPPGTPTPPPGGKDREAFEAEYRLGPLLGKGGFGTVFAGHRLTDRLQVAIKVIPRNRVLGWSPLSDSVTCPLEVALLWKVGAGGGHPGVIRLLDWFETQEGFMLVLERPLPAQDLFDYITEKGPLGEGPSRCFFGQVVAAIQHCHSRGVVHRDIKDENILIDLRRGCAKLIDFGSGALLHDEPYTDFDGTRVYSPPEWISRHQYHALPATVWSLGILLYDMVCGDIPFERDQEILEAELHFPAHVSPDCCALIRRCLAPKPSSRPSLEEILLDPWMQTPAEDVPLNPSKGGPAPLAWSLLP

- pIC50: 3.59
SMILES: C/C(O)=C(\C#N)C(=O)Nc1ccc(C(F)(F)F)cc1 [Ter, Teriflunomide]
